The source of these data is PMC4503454, “A Lead-In with Silibinin Prior to Triple-Therapy Translates into Favorable Treatment Outcomes in Difficult-To-Treat HIV/Hepatitis C Coinfected Patients” (PLoS ONE, 2015).

Series [1] in a line: Antiretroviral plasma trough levels before and during silibinin. In kind it is in vivo, human. Here is the method: Plasma samples obtained from HIV-HCV infected individuals were isolated by immediate centrifugation at 1850 X g (3000 rpm) and stored at -80°C. For the plasma quantification of antiretroviral drugs, samples were inactivated for virus at 60°C for 60 minutes. Plasma levels were determined by liquid chromatography coupled with tandem mass spectrometry (LC-MS/MS) after protein precipitation with acetonitrile according to our previously reported validated analytical method. The laboratory participates in an international external quality assurance program for antiretroviral drugs analysis (KKGT, Stichting Kwaliteitsbewaking Klinische Geneesmiddelanalyse en Toxicologie, Association for Quality Assessment in TDM and clinical Toxicology, The Hague, The Netherlands). Plasma trough levels for raltegravir (RAL), darunavir (DRV), atazanavir (ATV), and etravirine (ETV) were graphically extrapolated from measured concentrations, using population pharmacokinetic models previously published. Reference values for efavirenz (EFV) were adopted from a study from Marzolini et al.. The median trough concentrations for these agents in HIV-infected persons receiving the recommended dose are taken from the guidelines for the use of antiretroviral agents in HIV-1 infected adults and adolescents.
We used an intention-to-continue treatment approach to calculate virologic responses as percentage of patients with undetectable HCV-RNA, using all patients who started treatment as denominator. Plasma concentrations are presented as median (range). Two-tailed paired t-tests were conducted to detect difference in trough levels of antiretroviral drugs between pre- and post-administration of silibinin. GraphPad Prism 6 (GraphPad Software, La Jolla, CA) was used with an alpha of 0.05.

Details of series [2]: species or system human. The note with it: in vivo; for Median Cmax (Range): human, iv, 20 mg/kg/day. Here is the method: To measure silibinin plasma concentration, the plasma concentrations of silibinin isomers (A and B) and silibinin dihydrogen succinate isomers (A and B) were determined by LC/MS-MS. Of note, the range of plasma concentrations of the LC-MS/MS assay was selected according to the levels reported in the study from Sala et al. Briefly, 100 μl of plasma was added to 20 μl of internal standard naringenin (IS) and extracted by protein precipitation. After evaporation and reconstitution, 20 μL was injected into a Select- HSS T3 (2.1x75 mm, 3.5 μm) (Waters, Milford, MA, USA).
Chromatographic separations were performed using a gradient program with 10 mM ammonium formate containing 0.1% formic acid and acetonitrile with 0.1% formic acid. Analytes were quantified by electrospray ionization-triple quadrupole mass spectrometry using the selected reaction monitoring detection in the negative mode. Importantly, the selected gradient program allows adequate separation to quantify isomers A and B individually. The method has a mean inter-day coefficient of variation (CV) % of <10% and an inter-day deviation from nominal values of <7%.
Of note, the Cmin of isomer A of both silibinin dihydrogen succinate and silibinin were 2- and 7-fold higher than the corresponding values of isomer B [20].

Setting [3] is: plasma, paired t-test, ATV/r p = 0.89, RAL p = 0.90, ETV, EFV, DRV/r p = 0.14.

As to `Cc1nnc(C(=O)NC(C)(C)c2nc(C(=O)NCc3ccc(F)cc3)c(O)c(=O)n2C)o1` [RAL, raltegravir], the “trough level under silibinin coadministration (day 1 vs day 12)” value (from here on “trough level … (day 1 vs day 12)”) in series [1] (setting [3]) is listed as “not influenced”.
On the same count and under the same terms, for `Cc1cc(C#N)cc(C)c1Oc1nc(Nc2ccc(C#N)cc2)nc(N)c1Br` [ETV, etravirine] the value was “not influenced”.
Consider `O=C1Nc2ccc(Cl)cc2[C@@](C#CC2CC2)(C(F)(F)F)O1` [EFV, efavirenz], for which the “trough level … (day 1 vs day 12)” value in series [1] (in vivo) is on record as “not influenced”.
With `COc1cc([C@H]2Oc3cc([C@H]4Oc5cc(O)cc(O)c5C(=O)[C@@H]4O)ccc3O[C@@H]2CO)ccc1O` [Silibinin A], in series [2], the “Median Cmax (Range)” value is reported as 0.62 (0.29–1.07) μg/mL and the “Cmin of isomer A relative to isomer B” value came out at 7 fold.
In the case of atazanavir/ritonavir [ATV/r], the “trough level … (day 1 vs day 12)” value in series [1] (setting [3]) was “not influenced”.
Take darunavir/ritonavir [DRV/r]: the “trough level … (day 1 vs day 12)” value in series [1] (setting [3]) is given as “not influenced”.
As for `COc1cc(C2Oc3cc(C4Oc5cc(O)cc(O)c5C(=O)C4O)ccc3OC2CO)ccc1O` (centres unmarked) [Silibinin B], the “Median Cmax (Range)” value in series [2] was 0.25 (0.08–0.78) μg/mL.
